Numbered stars: 1 amine (or outer) side, 2 acyl side, 3 side chain; on linkers, the order of the positions; unused ones are H or OH. Bridge positions count the residues as written; N and C are the ends. Square brackets hold non-standard residues; d marks the D form. Peptide text beside a SMILES is read from it. * marks the point of attachment. hTyr(3S-OH,4S-OH,3'-OSO3H) = N[C@H](C(=O)O)[C@H](O)[C@@H](O)c1ccc(O)c(OS(=O)(=O)O)c1; pTerphenylCO(4''-OnC5H11) = CCCCCOc1ccc(-c2ccc(-c3ccc(C(=O)*)cc3)cc2)cc1; Orn(4R-OH,5R-OH) = O=C([C@H](C[C@@H](O)[C@@H](O)N[*:3])N[*:1])[*:2]; hTyr(3S-OH,4S-OH) = N[C@H](C(=O)O)[C@H](O)[C@@H](O)c1ccc(O)cc1; Pro(3S-OH,4S-Me) = C[C@H]1CN[C@H](C(=O)O)[C@H]1O; X1 = CCCCCOc1ccc(-c2cc(-c3ccc(C(=O)*)cc3)no2)cc1; Gln(3R-OH) = NC(=O)C[C@@H](O)[C@H](N)C(=O)O; Hyp = O=C(O)[C@@H]1C[C@@H](O)CN1
Tests used:
Assay type in all cases: functional
Candida parapsilosis [1] = assay: Antifungal activity against Candida parapsilosis ATCC 22019 after 24 hrs by CLSI M27-A2 broth microdilution method in presence of 50% human serum; settings: Lodderomyces parapsilosis, ATCC 22019, 24 h
Candida albicans [2] = assay: Antifungal activity against Candida albicans isolate 0021-076 after 24 hrs by CLSI M27-A2 broth microdilution method in presence of 50% human serum; settings: isolate 0021-076, 24 h
Aspergillus fumigatus [3] = assay: Ratio of MIC50 for Aspergillus fumigatus isolate 0002-020 in presence of 50% human serum to MIC50 for Aspergillus fumigatus isolate 0002-020 in presence of RPMI 1640 medium
Aspergillus fumigatus [4] = assay: Antifungal activity against Aspergillus fumigatus isolate 0020-018 after 24 hrs by CLSI M38-A broth microdilution method in presence of RPMI 1640 medium; settings: isolate 0020-018, 24 h
Candida parapsilosis [5] = assay: Antifungal activity against Candida parapsilosis isolate 0011-013 after 24 hrs by CLSI M27-A2 broth microdilution method in presence of RPMI 1640 medium; settings: Lodderomyces parapsilosis, isolate 0011-013, 24 h
Candida parapsilosis [6] = assay: Antifungal activity against Candida parapsilosis isolate 0014-074 after 24 hrs by CLSI M27-A2 broth microdilution method in presence of 50% human serum; settings: Lodderomyces parapsilosis, isolate 0014-074, 24 h
Clavispora lusitaniae [7] = assay: Ratio of MIC50 for Candida lusitaniae isolate 0013-002 in presence of 50% human serum to MIC50 for Candida lusitaniae isolate 0013-002 in presence of RPMI 1640 medium
Aspergillus flavus [8] = assay: Ratio of MIC50 for Aspergillus flavus isolate 0001-033 in presence of 50% human serum to MIC50 for Aspergillus flavus isolate 0001-033 in presence of RPMI 1640 medium
Aspergillus fumigatus [9] = assay: Ratio of MIC50 for Aspergillus fumigatus isolate […] in presence of 50% human serum to MIC50 for Aspergillus fumigatus isolate 0020-018 in presence of RPMI 1640 medium
Candida albicans [10] = assay: Antifungal activity against Candida albicans isolate 0021-076 after 24 hrs by CLSI M27-A2 broth microdilution method in presence of RPMI 1640 medium; settings: isolate 0021-076, 24 h
Aspergillus fumigatus [11] = assay: Antifungal activity against Aspergillus fumigatus isolate 0002-021 after 24 hrs by CLSI M38-A broth microdilution method in presence of RPMI 1640 medium; settings: isolate 0002-021, 24 h
Aspergillus fumigatus [12] = assay: Antifungal activity against Aspergillus fumigatus isolate 0002-020 after 24 hrs by CLSI M38-A broth microdilution method in presence of RPMI 1640 medium; settings: isolate 0002-020, 24 h
Clavispora lusitaniae [13] = assay: Ratio of MIC50 for Candida lusitaniae isolate 0015-049 in presence of 50% human serum to MIC50 for Candida lusitaniae isolate 0015-049 in presence of RPMI 1640 medium
Aspergillus terreus = assay: Antifungal activity against Aspergillus terreus isolate 0031-087 after 48 hrs by CLSI M38-A broth microdilution method in presence of 50% human serum; settings: isolate 0031-087, 48 h
Pichia kudriavzevii [14] = assay: Ratio of MIC50 for Candida krusei ATCC 6258 in presence of 50% human serum to MIC50 for Candida krusei ATCC 6258 in presence of RPMI 1640 medium
Pichia kudriavzevii [15] = assay: Antifungal activity against Candida krusei ATCC 6258 after 24 hrs by CLSI M27-A2 broth microdilution method in presence of 50% human serum; settings: ATCC 6258, 24 h
Aspergillus niger [16] = assay: Antifungal activity against Aspergillus niger isolate 0001-073 after 24 hrs by CLSI M38-A broth microdilution method in presence of 50% human serum; settings: isolate 0001-073, 24 h
Candida albicans [17] = assay: Ratio of MIC50 for Candida albicans isolate 0021-076 in presence of 50% human serum to MIC50 for Candida albicans isolate 0021-076 in presence of RPMI 1640 medium
Candida tropicalis [18] = assay: Antifungal activity against Candida tropicalis isolate 0050-028 after 24 hrs by CLSI M27-A2 broth microdilution method in presence of RPMI 1640 medium; settings: isolate 0050-028, 24 h
Pichia kudriavzevii [19] = assay: Antifungal activity against Candida krusei isolate 0013-054 after 24 hrs by CLSI M27-A2 broth microdilution method in presence of RPMI 1640 medium; settings: isolate 0013-054, 24 h
Candida parapsilosis [20] = assay: Antifungal activity against Candida parapsilosis isolate 0011-013 after 24 hrs by CLSI M27-A2 broth microdilution method in presence of 50% human serum; settings: Lodderomyces parapsilosis, isolate 0011-013, 24 h
Candida tropicalis [21] = assay: Antifungal activity against Candida tropicalis isolate 0022-021 after 24 hrs by CLSI M27-A2 broth microdilution method in presence of RPMI 1640 medium; settings: isolate 0022-021, 24 h
Candida albicans [22] = assay: Antifungal activity against Candida albicans isolate 0012-025 after 24 hrs by CLSI M27-A2 broth microdilution method in presence of RPMI 1640 medium; settings: isolate 0012-025, 24 h
Aspergillus fumigatus [23] = assay: Antifungal activity against Aspergillus fumigatus isolate 0002-021 after 24 hrs by CLSI M38-A broth microdilution method in presence of 50% human serum; settings: isolate 0002-021, 24 h
Aspergillus fumigatus [24] = assay: Ratio of MIC50 for Aspergillus fumigatus isolate 0002-0016 in presence of 50% human serum to MIC50 for Aspergillus fumigatus isolate 0002-0016 in presence of RPMI 1640 medium
Candida parapsilosis [25] = assay: Antifungal activity against Candida parapsilosis ATCC 22019 after 24 hrs by CLSI M27-A2 broth microdilution method in presence of RPMI 1640 medium; settings: Lodderomyces parapsilosis, ATCC 22019, 24 h
Aspergillus flavus [26] = assay: Antifungal activity against Aspergillus flavus isolate 0001-033 after 24 hrs by CLSI M38-A broth microdilution method in presence of RPMI 1640 medium; settings: isolate 0001-033, 24 h
Pichia kudriavzevii [27] = assay: Ratio of MIC50 for Candida krusei isolate 0001-058 in presence of 50% human serum to MIC50 for Candida krusei isolate 0001-058 in presence of RPMI 1640 medium
Candida parapsilosis [28] = assay: Antifungal activity against Candida parapsilosis isolate 0036-030 after 24 hrs by CLSI M27-A2 broth microdilution method in presence of 50% human serum; settings: Lodderomyces parapsilosis, isolate 0036-030, 24 h
Aspergillus fumigatus [29] = assay: Antifungal activity against Aspergillus fumigatus isolate 0002-0016 after 24 hrs by CLSI M38-A broth microdilution method in presence of 50% human serum; settings: isolate 0002-0016, 24 h
Nakaseomyces glabratus = assay: Ratio of MIC50 for Candida glabrata isolate 0022-012 in presence of 50% human serum to MIC50 for Candida glabrata isolate 0022-012 in presence of RPMI 1640 medium
Aspergillus niger [30] = assay: Antifungal activity against Aspergillus niger isolate 0001-073 after 24 hrs by CLSI M38-A broth microdilution method in presence of RPMI 1640 medium; settings: isolate 0001-073, 24 h

Compound	MIC50 (Candida parapsilosis [1]) [mg/L]	MIC50 (Candida albicans [2]) [mg/L]	Ratio (Aspergillus fumigatus [3])	MIC50 (Aspergillus fumigatus [4]) [mg/L]	MIC50 (Candida parapsilosis [5]) [mg/L]	MIC50 (Candida parapsilosis [6]) [mg/L]	Ratio (Clavispora lusitaniae [7])	Ratio (Aspergillus flavus [8])	Ratio (Aspergillus fumigatus [9])	MIC50 (Candida albicans [10]) [mg/L]	MIC50 (Aspergillus fumigatus [11]) [mg/L]	MIC50 (Aspergillus fumigatus [12]) [mg/L]	Ratio (Clavispora lusitaniae [13])	MIC50 (Aspergillus terreus) [mg/L]	Ratio (Pichia kudriavzevii [14])	MIC50 (Pichia kudriavzevii [15]) [mg/L]	MIC50 (Aspergillus niger [16]) [mg/L]	Ratio (Candida albicans [17])	MIC50 (Candida tropicalis [18]) [mg/L]	MIC50 (Pichia kudriavzevii [19]) [mg/L]	other results
CCCCCOc1ccc(-c2ccc(-c3ccc(C(=O)N[C@H]4C[C@@H](O)[C@@H](O)NC(=O)[C@@H]5[C@@H](O)[C@@H](C)CN5C(=O)[C@H]([C@@H](C)O)NC(=O)[C@H]([C@H](O)[C@@H](O)c5ccc(O)cc5)NC(=O)[C@@H]5C[C@@H](O)CN5C(=O)[C@H]([C@@H](C)O)NC4=O)cc3)cc2)cc1 [ANIDULAFUNGIN] ({pTerphenylCO(4''-OnC5H11)}-[Orn(4R-OH,5R-OH)]T[Hyp][hTyr(3S-OH,4S-OH)]T[Pro(3S-OH,4S-Me)]; lactam 1-C)	64	128	64	0.5	0.0313	0.25	512	32	256	0.5	0.002	0.008	8	0.25	16	2	0.5	256	1	0.125	MIC50 (Candida parapsilosis [20]): 2 mg/L; MIC50 (Candida tropicalis [21]): 0.0156 mg/L; MIC50 (Candida albicans [22]): 0.0156 mg/L; MIC50 (Aspergillus fumigatus [23]): 128 mg/L; Ratio (Aspergillus fumigatus [24]): 64; MIC50 (Candida parapsilosis [25]): 0.5 mg/L; MIC50 (Aspergillus flavus [26]): 4 mg/L; Ratio (Pichia kudriavzevii [27]): 32; MIC50 (Candida parapsilosis [28]): 128 mg/L; MIC50 (Aspergillus fumigatus [29]): 128 mg/L; Ratio (Nakaseomyces glabratus): 32; MIC50 (Aspergillus niger [30]): 0.001 mg/L
CC[C@H](C)C[C@H](C)CCCCCCCCC(=O)N[C@H]1C[C@@H](O)[C@@H](NCCN)NC(=O)[C@@H]2[C@@H](O)CCN2C(=O)[C@H]([C@H](O)CCN)NC(=O)[C@H]([C@H](O)[C@@H](O)c2ccc(O)cc2)NC(=O)[C@@H]2C[C@@H](O)CN2C(=O)[C@H]([C@@H](C)O)NC1=O [CASPOFUNGIN]	8	4	256	16	0.25	0.5	1	4	8	0.5	1	0.5	2	0.5	8	4	0.25	8	0.5	0.5	MIC50 (Candida parapsilosis [20]): 1 mg/L; MIC50 (Candida tropicalis [21]): 0.5 mg/L; MIC50 (Candida albicans [22]): 0.25 mg/L; MIC50 (Aspergillus fumigatus [23]): 128 mg/L; Ratio (Aspergillus fumigatus [24]): 16; MIC50 (Candida parapsilosis [25]): 0.5 mg/L; MIC50 (Aspergillus flavus [26]): 32 mg/L; Ratio (Pichia kudriavzevii [27]): 1; MIC50 (Candida parapsilosis [28]): 8 mg/L; MIC50 (Aspergillus fumigatus [29]): 128 mg/L; Ratio (Nakaseomyces glabratus): 1; MIC50 (Aspergillus niger [30]): 0.0004 mg/L
CCCCCOc1ccc(-c2cc(-c3ccc(C(=O)N[C@H]4C[C@@H](O)[C@@H](O)NC(=O)[C@@H]5[C@@H](O)[C@@H](C)CN5C(=O)[C@H]([C@H](O)CC(N)=O)NC(=O)[C@H]([C@H](O)[C@@H](O)c5ccc(O)c(OS(=O)(=O)O)c5)NC(=O)[C@@H]5C[C@@H](O)CN5C(=O)[C@H]([C@@H](C)O)NC4=O)cc3)no2)cc1 [MICAFUNGIN] (X1-[Orn(4R-OH,5R-OH)]T[Hyp][hTyr(3S-OH,4S-OH,3'-OSO3H)][Gln(3R-OH)][Pro(3S-OH,4S-Me)]; lactam 1-C)	32	64	128	0.0156	0.0156	0.5	128	1024	32	0.5	0.001	0.004	256	0.25	128	8	0.25	128	0.25	0.125	MIC50 (Candida parapsilosis [20]): 4 mg/L; MIC50 (Candida tropicalis [21]): 0.0156 mg/L; MIC50 (Candida albicans [22]): 0.0156 mg/L; MIC50 (Aspergillus fumigatus [23]): 1 mg/L; Ratio (Aspergillus fumigatus [24]): 64; MIC50 (Candida parapsilosis [25]): 0.5 mg/L; MIC50 (Aspergillus flavus [26]): 0.125 mg/L; Ratio (Pichia kudriavzevii [27]): 32; MIC50 (Candida parapsilosis [28]): 128 mg/L; MIC50 (Aspergillus fumigatus [29]): 2 mg/L; Ratio (Nakaseomyces glabratus): 64; MIC50 (Aspergillus niger [30]): 0.002 mg/L
